Source: patent publication US20130030012A1, “COMPOUNDS” (Glaxo Group Limited, priority 2011, published 2013)
Read-outs that look alike come from different tables or passages of the source.

How the values were obtained:
[1] = molecular target: T1, recombinant human Lp-PLA2 (Homo sapiens, UniProt Q13093); experiment: Recombinant human Lp-PLA2 assay (rhLp-PLA2, PED6 assay); format: biochemical; settings: upper limit for pIC50 in this assay is 9.3
T1 sequence (Q13093 22-441): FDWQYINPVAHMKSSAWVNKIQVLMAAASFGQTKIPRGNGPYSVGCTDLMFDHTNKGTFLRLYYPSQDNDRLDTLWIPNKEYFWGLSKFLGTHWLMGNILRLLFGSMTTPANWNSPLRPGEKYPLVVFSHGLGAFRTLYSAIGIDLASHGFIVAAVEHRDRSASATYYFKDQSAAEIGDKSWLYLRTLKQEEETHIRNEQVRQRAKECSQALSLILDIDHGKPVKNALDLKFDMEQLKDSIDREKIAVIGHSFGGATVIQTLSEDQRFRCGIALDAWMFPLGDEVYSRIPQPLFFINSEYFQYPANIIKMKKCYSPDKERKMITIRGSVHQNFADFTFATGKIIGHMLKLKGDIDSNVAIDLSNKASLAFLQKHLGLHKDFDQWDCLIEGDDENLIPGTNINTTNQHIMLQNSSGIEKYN
Description: (1) Recombinant Human Lp-PLA2 Assay (rhLp-PLA2) (Also Referred to as “PED6” Assay)
N-((6-(2,4-dinitrophenyl)amino)-hexanoyl)-2-(4,4-difluoro-5,7-dimethyl-4-bora-3a,4a-diaza-s-indacene-3-pentanoyl)-1-hexadecanoyl-sn-glycero-3-phosphoethanolamine, triethylammonium salt (PED6) is a commercially available fluorescently-labeled phospholipid, which is commercially available from Invitrogene and Molecular Probes. There is a quenching […] and a Bodipy fluorescein (FL) group in the sn2 position. Upon cleavage with Lp-PLA2, the Bodipy FL group is liberated and then may result in an increase in fluorescence. Inhibitors of Lp-PLA2 therefore prevent this cleavage and no fluorescent increase is observed.
The PED6 assay was run as an unquenched 10 μL assay. The source plate containing the compounds to be tested was prepared by making 1:3 (by volume) serial dilution of the compounds within DMSO on 384-well microplate. Then, 0.01 μL of the compounds on compound source plate were transferred into 384 well Greiner 784076 (black) plates using ECHO liquid dispenser. 5 μL of recombinant human Lp-PLA2 enzyme (4 nM (or 110 pM) rhLp-PLA2 in assay buffer of 50 mM HEPES, pH 7.4, 150 mM NaCl, 1 mM CHAPS) was added to each well of the plate. Plates were centrifuged for 10 sec at 500 rpm. After 30 minutes preincubation, 5 μL of substrate ([…] (or 5 μM) PED6 [from 5 mM DMSO stock] in assay buffer of 50 mM HEPES, pH 7.4, 150 mM NaCl, 1 mM CHAPS) was added to 384 well Greiner 784076 (black) plates. Plates were centrifuged for 10 sec at 500 rpm. The plate was covered to protect it from light and incubated for 20 min at room temperature. The plates were read for fluorescence intensity at ex: 480/em: 540 using ViewLux microplate imager for Envision spectrofluoroimeters pIC50 data, curve and QC analysis was conducted by using XL fit module in Excel.
The compounds described below were tested generally according to the PED6 assay described above.

Lp-PLA2 in human plasma = molecular target: T2, Lp-PLA2 in human plasma (Homo sapiens, UniProt Q13093); experiment: Lp-PLA2 human plasma assay (Thio-PAF assay); format: biochemical; settings: pooled human plasma; read-out: pIC50 values in the thio-PAF assay (converted)
T2 construct: from tissue; host or cells: pooled human plasma
T2 sequence (Q13093 22-441): T1 sequence (Q13093 22-441)
Description: The human plasma assay utilizes a thioester analog of PAF (phosphatidylcholine), where hydrolysis yields to the formation of a phospholipid containing a free thiol group. The amount of thiol is quantitated continuously by reacting with CPM (7-diethylamino-3-(4′-maleimidylphenyl)-4-methylcoumarin), a maleimide which increases in fluoresence after Michael addition of thiols. This assay may detect the activity of Lp-PLA2 in human plasma, as determined by specific inhibition by Lp-PLA2 inhibitors.
The thio-PAF assay was run as a quenched 15 μL assay. Compounds source plate was prepared by making 1:3 (by volume) serial dilution of the compounds into pure DMSO on 384-well microplate. 0.01 μL of compounds on compound source plate were transferred to 384 well Greiner 784076 (black) low-volume plates by ECHO liquid dispenser. 8 μL pooled human plasma, which was previously aliquoted and frozen, was added. Plates were centrifuged for 10 sec at 500 rpm. After 30 minutes preincubation, 2 μL of substrate solution comprising 2.5 mM 2-thio-PAF [from ethanol stock], […] CPM [from a DMSO stock] and 3.2 mM NEM (N-ethylmaleimide) [made fresh daily in DMSO] in assay buffer of 50 mM HEPES, pH 7.4, 150 mM NaCl, 1 mM CHAPS was added to 384 well Greiner 784076 (black) low-volume plates by BRAVO liquid handling station. After 2 mins, reaction was quenched with 5 μL of 5% aqueous trifluoroacetic acid (TFA). Plates were covered to protect from light and incubated for 40 min at room temperature. Plates were read at ex: 380/em: 485 using—Envision microplate reader. pIC50 data, curve and QC analysis was conducted by using XLFit module in Excel.

[2] = read-out: pIC50 values in the PED6 assay (converted)
[3] = Table 1, read-out: rhLp-PLA2 (PED6 assay) (pIC50) (converted)

IC50 [1, 2] [nM] | IC50 (Lp-PLA2 in human plasma) [nM] | IC50 [1, 3] [nM] | SMILES
≤ 10 | ≤ 100 |  | CN1CCCn2c1cc(OCc1ccc(Oc3ccc(F)c(Cl)c3)c(F)c1)nc2=O [Example 15, 8-((4-(3-chloro-4-fluorophenoxy)-3-fluorobenzyl)oxy)-1-methyl-3,4-dihydro-1H-pyrimido[1,6-a]pyrimidin-6(2H)-one]
≤ 10 | ≤ 100 |  | CN1CCCn2c1cc(OCc1ccc(Oc3cccc(Cl)c3)c(F)c1)nc2=O [Example 16, 8-((4-(3-chlorophenoxy)-3-fluorobenzyl)oxy)-1-methyl-3,4-dihydro-1H-pyrimido[1,6-a]pyrimidin-6(2H)-one]
≤ 10 | ≤ 1000 |  | CN1CCCn2c1cc(OCc1ccc(Oc3ccc(F)c(Cl)c3)cc1)nc2=O [Example 17, 8-((4-(3-chloro-4-fluorophenoxy)benzyl)oxy)-1-methyl-3,4-dihydro-1H-pyrimido[1,6-a]pyrimidin-6(2H)-one]
≤ 10 | ≤ 100 | 2 | CN1CCCn2c1cc(OCc1cc(F)c(F)c(F)c1)nc2=O [Example 21, 1-methyl-8-((3,4,5-trifluorobenzyl)oxy)-3,4-dihydro-1H-pyrimido[1,6-a]pyrimidin-6(2H)-one]
≤ 10 | ≤ 1000 |  | CN1CCCn2c1cc(OCc1ccc(Oc3cccc(F)c3)c(F)c1)nc2=O [Example 25, 8-((3-fluoro-4-(3-fluorophenoxy)benzyl)oxy)-1-methyl-3,4-dihydro-1H-pyrimido[1,6-a]pyrimidin-6(2H)-one]
≤ 10 | ≤ 100 | 2.51 | CN1CCCn2c1cc(OCc1ccc(Oc3cccc(C(F)(F)F)c3)c(F)c1)nc2=O [Example 28, 8-((3-fluoro-4-(3-(trifluoromethyl)phenoxy)benzyl)oxy)-1-methyl-3,4-dihydro-1H-pyrimido[1,6-a]pyrimidin-6(2H)-one]
≤ 10 | ≤ 100 |  | CN1CCCn2c1cc(OCc1ccc(Oc3ccc(C(F)(F)F)cc3)c(C#N)c1)nc2=O [Example 29, 5-(((1-methyl-6-oxo-2,3,4,6-tetrahydro-1H-pyrimido[1,6-a]pyrimidin-8-yl)oxy)methyl)-2-(4-(trifluoromethyl)phenoxy)benzonitrile]
≤ 10 | ≤ 100 |  | CN1CCCn2c1cc(OCc1ccc(Oc3ccc(F)cc3)c(C#N)c1)nc2=O [Example 30, 2-(4-fluorophenoxy)-5-(((1-methyl-6-oxo-2,3,4,6-tetrahydro-1H-pyrimido[1,6-a]pyrimidin-8-yl)oxy)methyl)benzonitrile]
≤ 10 | ≤ 1000 |  | CN1CCCn2c1cc(OCc1ccc(Oc3cccc(C(F)(F)F)n3)c(F)c1)nc2=O [Example 32, 8-((3-fluoro-4-((6-(trifluoromethyl)pyridin-2-yl)oxy)benzyl)oxy)-1-methyl-3,4-dihydro-1H-pyrimido[1,6-a]pyrimidin-6(2H)-one]
≤ 10 | ≤ 100 |  | CN1CCCn2c1cc(OCc1ccc(Oc3ccc(F)c(F)c3)c(C#N)c1)nc2=O [Example 34, 2-(3,4-difluorophenoxy)-5-(((1-methyl-6-oxo-2,3,4,6-tetrahydro-1H-pyrimido[1,6-a]pyrimidin-8-yl)oxy)methyl)benzonitrile]
≤ 10 | ≤ 100 |  | CC(C)N1CCCn2c1cc(OCc1ccc(Oc3ccc(C(F)(F)F)nc3)c(F)c1)nc2=O [Example 38, 8-((3-fluoro-4-((6-(trifluoromethyl)pyridin-3-yl)oxy)benzyl)oxy)-1-isopropyl-3,4-dihydro-1H-pyrimido[1,6-a]pyrimidin-6(2H)-one]
≤ 10 | ≤ 100 | 10 | CC(C)N1CCCn2c1cc(OCc1ccc(F)c(F)c1)nc2=O [Example 40, 8-((3,4-difluorobenzyl)oxy)-1-isopropyl-3,4-dihydro-1H-pyrimido[1,6-a]pyrimidin-6(2H)-one]
≤ 10 | ≤ 100 | 5.01 | CC(C)N1CCCn2c1cc(OCc1cc(F)c(F)c(F)c1)nc2=O [Example 42, isopropyl-8-((3,4,5-trifluorobenzyl)oxy)-3,4-dihydro-1H-pyrimido[1,6-a]pyrimidin-6(2H)-one]
≤ 1 | ≤ 100 | 1 | N#Cc1cc(COc2cc3n(c(=O)n2)CCCN3)ccc1Oc1cccc(C(F)(F)F)c1 [Example 53, 5-(((6-oxo-2,3,4,6-tetrahydro-1H-pyrimido[1,6-a]pyrimidin-8-yl)oxy)methyl)-2-(3-(trifluoromethyl)phenoxy)benzonitrile]
≤ 10 | ≤ 1000 |  | CN1CCCn2c1cc(OCCc1ccc(Oc3ccc(C(F)(F)F)c(Cl)c3)cn1)nc2=O [Example 54, 8-(2-(5-(3-chloro-4-(trifluoromethyl)phenoxy)pyridin-2-yl)ethoxy)-1-methyl-3,4-dihydro-1H-pyrimido[1,6-a]pyrimidin-6(2H)-one]
≤ 1 | ≤ 100 |  | CN1CCCn2c1cc(OCCc1ccc(Oc3ccc(Cl)c(C(F)(F)F)c3)cc1)nc2=O [Example 55, 8-(4-(4-chloro-3-(trifluoromethyl)phenoxy)phenethoxy)-1-methyl-3,4-dihydro-1H-pyrimido[1,6-a]pyrimidin-6(2H)-one]
≤ 1 | ≤ 100 |  | Cc1ccc(Oc2ccc(COc3cc4n(c(=O)n3)CCCN4C)cc2C#N)cn1 [Example 56, 5-(((1-methyl-6-oxo-2,3,4,6-tetrahydro-1H-pyrimido[1,6-a]pyrimidin-8-yl)oxy)methyl)-2-((6-methylpyridin-3-yl)oxy)benzonitrile]
≤ 1 | ≤ 100 | < 0.501 | CN1CCCn2c1cc(OCc1ccc(Oc3cc(F)cc(F)c3)c(F)c1)nc2=O [Example 58, 8-((4-(3,5-difluorophenoxy)-3-fluorobenzyl)oxy)-1-methyl-3,4-dihydro-1H-pyrimido[1,6-a]pyrimidin-6(2H)-one]
≤ 10 | ≤ 1000 |  | CN1CCCn2c1cc(OCc1ccc(Oc3ccc(F)cc3)c(F)c1)nc2=O [Example 74, 8-((3-fluoro-4-(4-fluorophenoxy)benzyl)oxy)-1-methyl-3,4-dihydro-1H-pyrimido[1,6-a]pyrimidin-6(2H)-one]
≤ 1 | ≤ 100 | < 0.501 | O=c1nc(OCc2cc(F)c(Oc3ccc(C(F)(F)F)nc3)c(F)c2)cc2n1CCCN2 [Example 75, 8-((3,5-difluoro-4-((6-(trifluoromethyl)pyridin-3-yl)oxy)benzyl)oxy)-3,4-dihydro-1H-pyrimido[1,6-a]pyrimidin-6(2H)-one]
